Results: patent US20250387405A1 (priority 2021, published 2025)
Like-named read-outs stand apart in the source and are kept apart here.

Assays:
[1] = Equilibrium solubility in water by HPLC; conditions: for equilibrium solubility in water (25° C.): HPLC
[2] = type: physicochemical; conditions: for Content of CBT/% / Content of OXA/%: 60° C.; for crystal structure: high temperature (60° C.) test
[3] = type: physicochemical; conditions: for crystal structure: light stability test; for Content of CBT/% / Content of OXA/%: light
[4] = tested on: Human fibroblast-like synovial cell rheumatoid arthritis (HFLS-RA) cells; assay: Proliferation of HFLS-RA cells; type: cell-based
Description: Human fibroblast-like synovial cell rheumatoid arthritis (HFLS-RA) cells were cultured in vitro and their proliferation was measured by quantifying the number of cells 48 h after treatment.

[5] = tested on: Human MH7A synovial cells; assay: Proliferation of MH7A cells; type: cell-based
Description: Human MH7A synovial cells were cultured in vitro and measured by quantifying the number of cells 48 h after treatment Proliferation.

[6] = 48 h after treatment, 1.563-100 μg/mL

Structure (SMILES)	Content of CBT/% ([2]; Day 0) [%]	Content of CBT/% ([2]; Day 1) [%]	Content of CBT/% ([2]; Day 3) [%]	Content of CBT/% ([2]; Day 5) [%]	Content of CBT/% ([2]; Day 10) [%]	Content of CBT/% ([2]; Day 15) [%]	crystal structure [2]	crystal structure [3]	Content of OXA/% ([2]; Day 0) [%]	Content of OXA/% ([2]; Day 1) [%]	Content of OXA/% ([2]; Day 3) [%]	Content of OXA/% ([2]; Day 5) [%]	Content of OXA/% ([2]; Day 10) [%]	Content of OXA/% ([2]; Day 15) [%]	Content of OXA/% ([3]; Day 0) [%]	Content of OXA/% ([3]; Day 1) [%]	Content of OXA/% ([3]; Day 3) [%]	Content of OXA/% ([3]; Day 5) [%]	Content of OXA/% ([3]; Day 10) [%]	Content of OXA/% ([3]; Day 15) [%]	further results
N.N.O=C([O-])C1(C(=O)[O-])CCC1.[Pt+2] [CBT, carboplatin, reference compound]	100	99.76	99.29	99.16	99.27	99.82	unchanged	unchanged	–	–	–	–	–	–	–	–	–	–	–	–	equilibrium solubility in water (25° C.) [1]: 12.7 mg/mL; Content of CBT/% ([3]; Day 0): 100%; Content of CBT/% ([3]; Day 1): 99.37%; Content of CBT/% ([3]; Day 3): 99.84%; Content of CBT/% ([3]; Day 5): 99.31%; Content of CBT/% ([3]; Day 10): 98.29%; Content of CBT/% ([3]; Day 15): 98.82%
OCC1OC(Oc2cc(O)cc(C=Cc3ccc(O)cc3)c2)C(O)C(O)C1O.[NH2][Pt]1([NH2])[O]C(=O)C2(CCC2)C(=O)[O]1 (centres unmarked) [CBT-PDT, carboplatin-polydatin cocrystal]	100	100	99.27	99.08	99.69	99.83	unchanged	unchanged	–	–	–	–	–	–	–	–	–	–	–	–	equilibrium solubility in aqueous solution compared with oxaliplatin or carboplatin, respectively ([1]; aqueous solution, versus parent platinum drug): higher; equilibrium solubility in water (25° C.) [1]: 16.2 mg/mL; Content of CBT/% ([3]; Day 0): 100%; Content of CBT/% ([3]; Day 1): 100%; Content of CBT/% ([3]; Day 3): 100%; Content of CBT/% ([3]; Day 5): 99.60%; Content of CBT/% ([3]; Day 10): 99.72%; Content of CBT/% ([3]; Day 15): 99.29%
CCN(CC)CCCC(C)Nc1ccnc2cc(Cl)ccc12.[NH2][Pt]1([NH2])[O]C(=O)C2(CCC2)C(=O)[O]1 (centres unmarked) [CBT-U72, carboplatin-chloroquine cocrystal]	100	100	99.66	99.84	99.67	99.97	unchanged	–	–	–	–	–	–	–	–	–	–	–	–	–	Content of CBT/% ([3]; Day 0): 100%; Content of CBT/% ([3]; Day 1): 100%; Content of CBT/% ([3]; Day 3): 99.20%; Content of CBT/% ([3]; Day 5): 99.24%; Content of CBT/% ([3]; Day 10): 99.57%; Content of CBT/% ([3]; Day 15): 99.92%
O=C1[O][Pt]2([NH][C@@H]3CCCC[C@H]3[NH]2)[O]C1=O [OXA, oxaliplatin, reference compound]	–	–	–	–	–	–	unchanged	unchanged	100	98.36	99.33	99.18	99.09	98.21	100	98.87	99.32	96.89	99.45	98.01	IC50, proliferation of HFLS-RA [4, 6]: 4.56 µg/mL; proliferation of HFLS-RA cells inhibited ([4]; FIG. 6): 99%; IC50, proliferation of MH7A [5, 6]: 8.91 µg/mL; proliferation of MH7A cells inhibited ([5]; FIG. 7): 99%
O=C(O)C1(C(=O)O)CCC1.O=C1[O][Pt]2([NH]C3CCCCC3[NH]2)[O]C1=O (centres unmarked) [OXA-CBDA, oxaliplatin-1,1-cyclobutane dicarboxylic acid cocrystal]	–	–	–	–	–	–	–	–	100	100	99.98	99.12	99.45	99.57	100	100	100	99.56	99.97	99.30	–
O=C1[O][Pt]2([NH]C3CCCCC3[NH]2)[O]C1=O.OCC1OC(Oc2cc(O)cc(C=Cc3ccc(O)cc3)c2)C(O)C(O)C1O (centres unmarked) [OXA-PDT, oxaliplatin-polydatin cocrystal]	–	–	–	–	–	–	unchanged	unchanged	100	100	100	99.73	99.63	99.87	100	100	99.97	99.88	99.44	99.91	–
CCN(CC)CCCC(C)Nc1ccnc2cc(Cl)ccc12.O=C1[O][Pt]2([NH]C3CCCCC3[NH]2)[O]C1=O (centres unmarked) [OXA-U72, oxaliplatin-chloroquine cocrystal]	–	–	–	–	–	–	unchanged	–	100	100	99.38	99.46	99.33	99.46	100	100	99.21	99.64	99.33	99.64	–
